Experimental data published in patent US12097193B2, “Methods for the administration of COMT inhibitors” (BIAL—PORTELA & CA, S.A., priority 2018, dated 2024).
Where two headings read alike, the source gives them in different places. Values belong to the compound of their own block, whether it stands above or below them.

Columns and labels:
[1] = biological target: T1, OATP1B3 (Homo sapiens, UniProt Q9NPD5); details: in vitro; cited from earlier work
T1 sequence (Q9NPD5 1-702): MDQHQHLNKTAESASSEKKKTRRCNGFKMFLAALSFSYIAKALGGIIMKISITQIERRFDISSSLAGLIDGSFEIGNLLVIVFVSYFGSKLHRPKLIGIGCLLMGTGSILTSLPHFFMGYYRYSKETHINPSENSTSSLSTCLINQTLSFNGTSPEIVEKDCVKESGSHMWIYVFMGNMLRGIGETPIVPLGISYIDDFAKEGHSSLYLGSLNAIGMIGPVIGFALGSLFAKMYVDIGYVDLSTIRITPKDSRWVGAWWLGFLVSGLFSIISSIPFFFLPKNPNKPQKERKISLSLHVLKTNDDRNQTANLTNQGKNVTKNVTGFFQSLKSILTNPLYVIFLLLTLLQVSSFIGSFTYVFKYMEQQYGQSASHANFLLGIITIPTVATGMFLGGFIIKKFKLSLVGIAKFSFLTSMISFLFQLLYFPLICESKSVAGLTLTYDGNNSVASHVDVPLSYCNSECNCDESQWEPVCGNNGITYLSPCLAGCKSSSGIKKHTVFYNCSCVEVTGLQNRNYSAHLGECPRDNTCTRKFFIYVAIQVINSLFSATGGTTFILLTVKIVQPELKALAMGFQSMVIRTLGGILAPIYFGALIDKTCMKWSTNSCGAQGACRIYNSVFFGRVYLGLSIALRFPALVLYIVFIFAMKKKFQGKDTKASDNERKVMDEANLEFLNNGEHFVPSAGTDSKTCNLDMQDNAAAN

[2] = biological target: T2, BCRP (Homo sapiens, UniProt Q9UNQ0); details: in vitro; cited from earlier work
T2 sequence (Q9UNQ0 1-655): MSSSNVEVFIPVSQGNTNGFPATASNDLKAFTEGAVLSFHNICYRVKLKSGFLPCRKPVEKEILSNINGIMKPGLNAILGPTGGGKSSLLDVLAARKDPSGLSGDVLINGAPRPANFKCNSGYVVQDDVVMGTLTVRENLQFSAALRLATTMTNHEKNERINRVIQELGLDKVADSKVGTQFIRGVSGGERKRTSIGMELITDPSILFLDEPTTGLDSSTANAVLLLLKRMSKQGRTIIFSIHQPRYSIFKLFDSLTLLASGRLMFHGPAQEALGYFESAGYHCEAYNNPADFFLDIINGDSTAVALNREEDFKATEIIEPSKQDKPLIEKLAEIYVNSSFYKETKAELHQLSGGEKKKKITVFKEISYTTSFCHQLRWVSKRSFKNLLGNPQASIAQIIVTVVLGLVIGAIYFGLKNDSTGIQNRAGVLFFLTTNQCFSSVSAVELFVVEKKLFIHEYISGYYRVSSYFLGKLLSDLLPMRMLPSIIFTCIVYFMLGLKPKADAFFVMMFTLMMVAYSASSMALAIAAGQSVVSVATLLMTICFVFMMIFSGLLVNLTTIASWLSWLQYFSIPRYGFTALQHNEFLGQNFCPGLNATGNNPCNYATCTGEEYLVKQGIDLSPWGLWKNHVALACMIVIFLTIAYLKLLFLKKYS

[3] = biological target: P-gp/MDR1 efflux transporter (Homo sapiens, UniProt P08183); details: in vitro; cited from earlier work
[4] = biological target: T3, OATP1B1 (Homo sapiens, UniProt Q9Y6L6); details: in vitro; cited from earlier work
T3 sequence (Q9Y6L6 1-691): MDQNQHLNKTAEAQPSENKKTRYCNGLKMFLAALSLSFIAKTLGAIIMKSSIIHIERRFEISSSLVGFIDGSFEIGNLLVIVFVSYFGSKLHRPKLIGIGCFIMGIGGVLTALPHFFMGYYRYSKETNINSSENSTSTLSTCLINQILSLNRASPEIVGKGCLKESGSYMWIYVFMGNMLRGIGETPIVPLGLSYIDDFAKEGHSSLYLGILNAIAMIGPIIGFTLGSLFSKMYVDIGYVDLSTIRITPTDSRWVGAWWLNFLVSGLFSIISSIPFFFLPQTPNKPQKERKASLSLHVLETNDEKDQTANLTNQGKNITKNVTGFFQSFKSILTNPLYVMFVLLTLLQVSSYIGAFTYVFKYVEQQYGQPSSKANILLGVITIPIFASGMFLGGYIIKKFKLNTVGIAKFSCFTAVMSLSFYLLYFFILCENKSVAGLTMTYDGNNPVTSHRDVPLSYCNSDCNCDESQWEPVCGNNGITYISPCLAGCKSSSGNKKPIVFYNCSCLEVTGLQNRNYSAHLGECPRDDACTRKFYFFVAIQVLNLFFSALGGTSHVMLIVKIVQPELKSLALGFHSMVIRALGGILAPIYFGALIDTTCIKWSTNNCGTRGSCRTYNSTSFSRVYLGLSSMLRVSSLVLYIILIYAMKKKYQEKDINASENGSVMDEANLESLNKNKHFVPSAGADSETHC

[5] = Phase 1 two-period crossover study of the effect of quinidine on the pharmacokinetics of opicapone (plasma PK); format: in vivo, human; details: for AUC(0-inf) / AUC(0-t) / Cmax / half-life: plasma, 50 mg
Text: A Phase 1, Randomized, Open-Label, Two-Period Crossover Study to Assess the Effect of Quinidine on the Pharmacokinetics of Opicapone (OPC) in Healthy Subjects
This was a Phase 1, randomized, open-label, 2-period crossover drug interaction study of the effect of quinidine on the PK of OPC in healthy subjects. A total of 20 subjects (10 males and 10 females) were randomized to 1 of 2 treatment sequences (5 males and 5 females per sequence) as depicted in the table below. Randomization to treatment sequence were stratified by gender. Enrolled subjects received a single dose of each of the following treatments under fasted conditions: OPC 50 mg and quinidine 600 mg plus OPC 50 mg (OPC will be administered 1 hour after quinidine). There was be a 14-day washout between the doses in each treatment period.
Subjects fasted overnight for at least 10 hours before OPC dosing on Day 1 and continued to fast for an additional 4 hours after OPC dosing.
Blood samples for the assessment of plasma concentrations of OPC and its metabolites were collected within 30 minutes predose and approximately 0.5, 1, 1.5, 2, 3, 4, 6, 8, 10, 12, 24, 48, 72, 96, and 120 hours postdose. The PK parameters to be calculated included the following for OPC and its metabolites:
Blood samples for the assessment of plasma concentrations of OPC and its metabolites were collected within 30 minutes predose and approximately 0.5, 1, 1.5, 2, 3, 4, 6, 8, 10, 12, 24, 48, 72, 96, and 120 hours postdose.
The following plasma PK parameters were calculated only for OPC: • Apparent systemic clearance after oral administration (CL/F). • Apparent volume of distribution during the terminal phase after oral administration (Vz/F).
PK parameters for OPC and its metabolites were calculated using noncompartmental methods. […] Safety data will be summarized with descriptive statistics.
Pharmacokinetic parameters (AUC0-inf, AUC0-t, and Cmax) for Opicapone were natural log-transformed prior to analysis and evaluated separately using a linear mixed effects model with fixed effects terms for sequence, period, and treatment. […] CV %=SQRT[exp(s^2)−1]×100 and ‘s’ is the standard deviation of the log-transformed values.

Chain of P-gp/MDR1 efflux transporter (P08183 whole entry): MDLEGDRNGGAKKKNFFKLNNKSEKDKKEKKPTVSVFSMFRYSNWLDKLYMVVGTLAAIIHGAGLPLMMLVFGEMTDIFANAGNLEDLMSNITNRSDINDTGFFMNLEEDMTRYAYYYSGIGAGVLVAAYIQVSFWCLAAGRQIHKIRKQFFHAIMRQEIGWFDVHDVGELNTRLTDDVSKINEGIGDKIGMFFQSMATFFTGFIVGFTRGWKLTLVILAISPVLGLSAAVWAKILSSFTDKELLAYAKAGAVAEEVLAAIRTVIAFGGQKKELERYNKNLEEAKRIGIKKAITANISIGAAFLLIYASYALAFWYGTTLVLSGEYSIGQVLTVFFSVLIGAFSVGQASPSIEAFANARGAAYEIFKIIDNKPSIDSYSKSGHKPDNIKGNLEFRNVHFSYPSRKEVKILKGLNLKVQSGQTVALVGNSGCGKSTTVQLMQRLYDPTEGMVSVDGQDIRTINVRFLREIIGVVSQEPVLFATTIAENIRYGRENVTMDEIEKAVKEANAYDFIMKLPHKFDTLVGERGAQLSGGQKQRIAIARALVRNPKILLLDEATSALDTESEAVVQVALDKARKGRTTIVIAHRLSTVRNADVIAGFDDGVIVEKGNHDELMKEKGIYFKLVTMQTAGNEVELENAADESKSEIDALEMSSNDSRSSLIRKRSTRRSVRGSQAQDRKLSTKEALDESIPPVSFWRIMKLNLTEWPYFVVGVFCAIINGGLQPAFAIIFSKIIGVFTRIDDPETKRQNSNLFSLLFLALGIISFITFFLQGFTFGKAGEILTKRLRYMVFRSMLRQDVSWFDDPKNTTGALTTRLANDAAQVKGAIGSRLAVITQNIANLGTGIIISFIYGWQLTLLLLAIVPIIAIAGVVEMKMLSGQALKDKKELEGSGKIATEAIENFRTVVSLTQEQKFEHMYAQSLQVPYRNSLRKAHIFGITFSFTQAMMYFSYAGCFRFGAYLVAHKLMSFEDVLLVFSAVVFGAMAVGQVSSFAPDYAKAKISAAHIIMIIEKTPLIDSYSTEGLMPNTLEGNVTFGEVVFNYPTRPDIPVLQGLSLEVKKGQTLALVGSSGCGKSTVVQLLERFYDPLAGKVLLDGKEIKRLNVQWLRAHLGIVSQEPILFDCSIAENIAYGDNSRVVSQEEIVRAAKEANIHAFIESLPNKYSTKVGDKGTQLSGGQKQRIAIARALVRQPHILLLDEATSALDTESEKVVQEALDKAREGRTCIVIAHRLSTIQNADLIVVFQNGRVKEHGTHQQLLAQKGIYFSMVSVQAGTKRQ

Compound: Cc1c(Cl)c(C)[n+]([O-])c(Cl)c1-c1noc(-c2cc(OS(=O)(=O)O)c(O)c([N+](=O)[O-])c2)n1 [BIA 9-1103]
- transported by OATP1B3 [1]: transported
- efflux transported by BCRP [2]: efflux transported
- efflux transported by P-gp (P-gp/MDR1 substrate) [3]: not a substrate
- transported by OATP1B1 [4]: transported

- Tmax ([5]; both sexes, human, oral, opicapone in plasma, healthy subjects, fasted, single dose OPC 50 mg, Median): 1.53 h
- AUC(0-inf) ([5]; both sexes, human, oral, opicapone in plasma, healthy subjects, fasted, single dose OPC 50 mg, Geometric Mean (descriptive), read-out: AUC(0-inf), Geometric Mean): 2060 ng·h/mL
- AUC(0-t) ([5]; both sexes, human, oral, opicapone in plasma, healthy subjects, fasted, single dose OPC 50 mg, Geometric Mean (descriptive), read-out: AUC(0-last), Geometric Mean): 1960 ng·h/mL
- Cmax ([5]; both sexes, human, oral, opicapone in plasma, healthy subjects, fasted, single dose OPC 50 mg, Geometric Mean (descriptive), read-out: Cmax, Geometric Mean): 766 ng/mL
- half-life ([5]; both sexes, human, oral, opicapone in plasma, healthy subjects, fasted, single dose OPC 50 mg, Geometric Mean (descriptive), read-out: t½, Geometric Mean (converted)): 53.2 min
- AUC(0-inf) ([5]; both sexes, human, oral, opicapone in plasma, healthy subjects, fasted, single dose OPC 50 mg, Mean, read-out: AUC(0-inf), Mean): 2140 ng·h/mL
- AUC(0-t) ([5]; both sexes, human, oral, opicapone in plasma, healthy subjects, fasted, single dose OPC 50 mg, Mean, read-out: AUC(0-last), Mean): 2040 ng·h/mL
- Cmax ([5]; both sexes, human, oral, opicapone in plasma, healthy subjects, fasted, single dose OPC 50 mg, Mean, read-out: Cmax, Mean): 804 ng/mL
- half-life ([5]; both sexes, human, oral, opicapone in plasma, healthy subjects, fasted, single dose OPC 50 mg, Mean, read-out: t½, Mean (converted)): 55.1 min
- AUC(0-inf) ([5]; both sexes, human, oral, opicapone in plasma, healthy subjects, fasted, single dose OPC 50 mg, Median, read-out: AUC(0-inf), Median): 2020 ng·h/mL
- AUC(0-t) ([5]; both sexes, human, oral, opicapone in plasma, healthy subjects, fasted, single dose OPC 50 mg, Median, read-out: AUC(0-last), Median): 1940 ng·h/mL
- Cmax ([5]; both sexes, human, oral, opicapone in plasma, healthy subjects, fasted, single dose OPC 50 mg, Median, read-out: Cmax, Median): 782 ng/mL
- half-life ([5]; both sexes, human, oral, opicapone in plasma, healthy subjects, fasted, single dose OPC 50 mg, Median, read-out: t½, Median (converted)): 55.9 min
- AUC(0-inf) ([5]; both sexes, human, oral, opicapone, geometric mean from linear mixed effects model, OPC 50 mg, healthy subjects, read-out: AUC0-inf, GM): 2030 ng·h/mL
- AUC(0-t) ([5]; both sexes, human, oral, opicapone, geometric mean from linear mixed effects model, OPC 50 mg, healthy subjects, read-out: AUC0-t, GM): 1960 ng·h/mL
- Cmax ([5]; both sexes, human, oral, opicapone, geometric mean from linear mixed effects model, OPC 50 mg, healthy subjects, read-out: Cmax, GM): 766 ng/mL
- decrease in opicapone exposure ([5]; in those also being administered quinidine): approximately 30%
- Tlag, Median ([5]; opicapone in plasma, healthy subjects, fasted, single dose OPC 50 mg, Median): 0.00 h
Compound: Cc1c(Cl)c(C)[n+]([O-])c(Cl)c1-c1noc(-c2cc(O)c(O)c([N+](=O)[O-])c2)n1 [OPC, 5-[3-(2,5-dichloro-4,6-dimethyl-1-oxy-pyridin-3-yl)-[1,2,4]oxadiazol-5-yl]-3-nitrobenzene-1,2-diol]
- transported by OATP1B3 [1]: transported
- efflux transported by BCRP [2]: efflux transported
- efflux transported by P-gp (P-gp/MDR1 substrate) [3]: efflux transported
- transported by OATP1B1 [4]: not transported
